Results taken from US11883538B2, “Sustained release compositions comprising micronized tolcapone” (Som Innovation Biotech, S.L., priority 2016, dated 2024).

Experiment: Determination of tolcapone's particle size (laser analyzer MASTERSIZER 2000, Ph. Eur. 2.9.31)
Type: physicochemical
Conditions: wet dispersion in water for injection
From the text: Determination of Tolcapone's Particle Size
Particle size measurement (Dv,0.1, Dv,05, Dv,0.9 and Dv,1.0) may be determined according to the general method described in section 2.9.31 of the European Pharmacopeia in particular using a particle size laser analyzer MASTERSIZER 2000 from Malvern featuring a wet dispersion unit HYDRO 2000 SM for small volumes of sample.
Material: • Sample: Tolcapone suspension • Refraction index: 1.59 (default) • Dispersant: water for injection • Refraction index: 1.33
Cycles: • Measurements for each aliquot: 3 • Lag time: 12 s • Pump stirring velocity: 2500 rpm
Measuring Time: • Measure: 12 s (in triplicates) • Measure snaps: 12000 • Background: 10 s • Background snaps: 10000
Three readings are made for each sample.
Thus, Dv,0.9 lower than 54.33 μm that 90% of the volume of the particles is in particles which are smaller 54.33 μm.

Row | Dv,0.1 [μm] | Dv,0.5 [μm] | Dv,0.9 [μm] | Dv,1.0 [μm] | Compound
1 | <6.09 | <17.62 | <54.33 | <316.23 | Cc1ccc(C(=O)c2cc(O)c(O)c([N+](=O)[O-])c2)cc1 [micronized tolcapone, (3,4-dihydroxy-5-nitrophenyl)(4-methylphenyl)methanone]
2 | <22.45 | <87.23 | <307.86 | <1096.48 | Cc1ccc(C(=O)c2cc(O)c(O)c([N+](=O)[O-])c2)cc1 [non-micronized tolcapone, (3,4-dihydroxy-5-nitrophenyl)(4-methylphenyl)methanone]
